SMILES	melting point
Cc1ccc(N2CN(c3ccccc3)C3=NN=CC3=C2N)cc1	248 to 250 °C
Cc1cccc(NC(=O)NCC(=O)N(c2ccccc2)C(C(=O)N2CCCC2)c2ccccc2)c1 (racemic)	138 °C
COc1cc2nc(-c3cc(C)c(OCC(N)=O)c(C)c3)[nH]c(=O)c2cc1OC	354 to 356 °C
COCCNc1c([N+](=O)[O-])cc(C)cc1[N+](=O)[O-]	75 °C
Cn1nc(C(O)c2ccccc2)nc1NCC(O)COc1cccc(CN2CCCCC2)c1 (configuration not stated)	154 to 157 °C
Nc1cc(=O)n(Cc2ccc(C(F)(F)F)c(Cl)c2)[nH]1	83 °C
Cn1c2c(ccc1=O)C(NCCc1ccc(Cl)cc1Cl)CCC2 (configuration not stated)	102 to 103 °C
O=C(Oc1ccc(O)cc1)c1ccc(O)cc1	242 to 245 °C
O=C(O)C1Cc2cc(O)c(O)cc2CN1 (configuration not stated)	288 °C
O=C(O)c1cn(C2COC2)c2c(F)c(N3CCCC3)c(F)cc2c1=O	261 to 262 °C
COC(=O)C(Br)c1ccc2c(c1)OCO2 (configuration not stated)	39 to 41 °C
CCN(C(=O)Nc1ccccc1)c1cccc(-c2ccc(CC3SC(=O)NC3=O)cc2)c1 (configuration not stated)	186 °C
CS(=O)c1ccc(-c2cnn(CC(F)(F)F)c(=O)c2-c2ccc(Cl)cc2)cc1 (configuration not stated)	154 to 155 °C
O=S(=O)(c1ccccc1)n1ccc2c(Cl)ncnc21	163 to 167 °C
CCCCOC(=O)C(NC(=O)c1cc([N+](=O)[O-])cc([N+](=O)[O-])c1)C(C)C (configuration not stated)	88 to 91 °C
C#CCOC(=O)c1ccc(O)c(Cl)c1	144 to 145 °C
COc1cc(Nc2c(C#N)cnc3cc(OS(=O)(=O)C(F)(F)F)c(OC)cc23)c(Cl)cc1Cl	220 to 223 °C
Cc1cc(C(=O)Nc2cc(-c3c(-c4ccc(F)c(C)c4)nc4cccnn34)ccn2)cc(Cl)n1	298 to 300 °C
CCOC(=O)C1CCNC(=O)C1=O (configuration not stated)	148 to 151 °C
CC1=CC(O)C(OC(=O)c2ccc(Cl)cc2)C(C)(C)CC1=O (configuration not stated)	114 to 116 °C
COC(=O)Nc1cc(C)on1	136 to 137 °C

SMILES	melting point
CCCCCCCCCCCCCCCCCC(=O)Oc1cccc(C(=O)OCC)c1	57 °C
O=C(c1ccccc1)N1CCC2CC(O)(c3ccc(F)cc3)CCC2C1 (configuration not stated)	84 to 85 °C
FC(F)(F)c1nc2cc(Cl)c(Cl)cc2[nH]1	225 to 230 °C
COc1ccc(C(C)=O)cc1C=CC(=O)O	203 °C
CC(C)NC(=O)c1c(I)cccc1C(=O)Nc1ccc(OCC(F)(F)F)nc1	220 to 225 °C
COc1ccc2c(c1)cc(/C=C/c1ccccc1Cl)n2CCC#N	136 to 138 °C
O=C(O)CSCn1cnnn1	98 to 101 °C
CCN(c1cccc(-c2ccnc3c([N+](=O)[O-])cnn23)c1)S(=O)(=O)c1ccc(OC)cc1	209 to 211 °C
Cc1ccc(C(=O)c2cc(CN(C)CCO)c(O)c(C(C)(C)C)c2)cc1	131 to 132 °C
O=C(CNc1ccccc1)Nc1c(Cl)ccc2nc(N3CC[C@@H](O)C3)ccc12	230 to 232 °C
CCNc1nc(SC)ncc1CNc1cc(OC)cc(OC)c1Cl	116 to 118 °C
O=C(c1ccc2[nH]cnc2c1)N1CCC[C@H](c2nc(-c3ccc(F)cc3)no2)C1	110 to 115 °C
Cc1cccc(Nn2cnc(C)c2-c2cccc(C#N)c2)c1	138 to 140 °C
Cc1nc2ccccc2nc1Oc1ccc(O)cc1	175 to 178 °C
C#CCN1C=CC(c2c(O)cc(C(C)C(C)CCCCC)cc2OC)CC1 (configuration not stated)	113 to 115 °C
CN(C)CCNC(=S)SC(C)(C)[C@H](NC(=O)c1ccc(Cl)cc1)C(=O)O	142 to 143 °C
CN1C2C=C(c3ccc(Cl)c(Cl)c3)CC1CC2 (configuration not stated)	44 to 52 °C
COC1=CC(=O)C2=C(C1=O)C1CCC2C1 (configuration not stated)	106 to 108 °C
CCc1c(-c2ccc(N(C)C)nn2)ssc1=S	160 °C
CC(C)(C(=O)c1ccc(SCCCCCCS)cc1)N1CCOCC1	61 to 64 °C
CN1C(=O)[C@H](NC(=O)C(c2ccccc2)c2ccccc2)N=C(c2ccccc2)c2ccccc21	200 to 201 °C

Reference: a melting point compilation (Tetko et al.; mined from patent text by program, amines drawn as free bases though some values may be those of a salt)
